Values of other authors as cited in US7183392B2, “Site-specific, covalent bioconjugation of proteins” (Zyomyx, Inc., priority 2000, dated 2007).

Experiments:
[1] = aqueous and polar environments
[2] = target: Helix A / Helix B parallel heterodimer; conditions: parallel heterodimer of Helix A with Helix B; read-out: dissociation constant
[3] = target: RNA aptamer; conditions: 11 amino acid sequence, known RNA aptamer

| Kd [3] [nM] | Substance | solubility [1] | Kd [2] [nM] |
| --- | --- | --- | --- |
| – | EYQALKKKVAQLKAKNNALKKKVAQLKHKG [Helix B, basic leucine zipper helix based on GCN4, per Wendt et al] | very soluble | ~6 |
| ~190 | substance P: 11 amino acid long peptide sequence that binds a known RNA aptamer | – | – |
| – | EYQALEKEVAQLEAENNALEKEVAQLEHEG [Helix A] | very soluble | ~6 |
